Data from patent publication US20130273003A1, “Therapies for Treating Hepatitis C Virus Infection” (priority 2012, published 2013).
Where “and” joins values, the source holds several entries; their conditions need not be identical. Identical values can stand only once.

What was measured:
[1] = Study VX-222-102 Part A: PK and safety of VX-222 in HCV infected subjects, 3 days; format: in vivo, human
Experimental: (§1) In Part A of Study 102 subjects were randomized to VX-222 or placebo in a 6:2 (VX-222: placebo) allocation ratio to either Cohort 1, Cohort 2, Cohort 3, or Cohort 4. Subjects enrolled in Cohort 1, Cohort 2, and Cohort 3 were administered 250 mg, 500 mf, or 750 mg VX-222 or placebo twice daily (b.i.d.) for 3 days, respectively. Subjects enrolled in Cohort 4 were administered 1,500 mg VX-222 or placebo once daily (qd) for 3 days. Standard of care treatment, Peg-IFN-alpha-2a and RBV was offered to the subjects at the end of dosing in Part A for up to 48 weeks, if judged appropriate by the physician.
Subjects with genotype 1 chronic hepatitis C infection were exposed to multiple doses of VX-222 or placebo at 250 mg (Cohort 1), 500 mg (Cohort 2), or 750 mg (Cohort 3) b.i.d. for 3 days. […] The majority of the reported adverse events were mild in severity and there were no untoward adverse incidences or trends.
(§2) Study Design a& Population Multicenter, randomized, double-blinded, placebo-controlled, dose-ranging study HCV genotype 1-infected patients With no evidence of cirrhosis ALT values<5×ULM Plasma HCV RNA of ≧5 log10 IU/mL at screening 4-arm comparative study (6:2 randomization VX-222: placebo) Enrollment in this dosing—ranging study was sequential 250 mg BID for 3 days 500 mg BID for 3 days 750 mg BID for 3 days 1500 mg QD for 3 days.

genotype 1 HCV = assay: Study VX-222-102 Part A: HCV RNA analyses (viral load reduction); format: in vivo, Hepatitis C virus
Experimental: as §1
Additional results of Study VX-222-102 are described in FIGS. 2-8: Thirty-two treatment-naïve patients with chronic genotype 1 HCV infection were enrolled in the trial, including six patients in each dose group who received 250 mg of VX-222 BID, 500 mg of VX-222 BID, 750 mg of VX-222 BID, and 1,500 mg of VX-222 QD. Two patients received placebo in each of the four dosing groups, for a total of eight patients who received placebo. Part A of the trial was conducted at 10 centers in the United States, Canada and Argentina. Of the patients enrolled in the trial, 24 patients had genotype 1a HCV infection and eight patients had genotype 1b HCV infection. Six of the patients enrolled in the trial were African American, 25 were Caucasian.
as §2

[2] = PK parameters of VX-222 in Study 101 Part C and Study 102 Part A; format: in vivo, human; settings: 250 to 750 mg b.i.d.
Experimental: In Part C of Study 101, VX-222 was administered as multiple doses of 750 mg b.i.d. to treatment-naïve subjects with chronic hepatitis C for 3 days. In addition, in Part A of Study 102, VX-222 was administered as multiple doses ranging from 250 mg to 750 mg BID and 1500 mg once a day to treatment-naïve subjects with chronic hepatitis C for 3 days. The PK parameters of VX-222 assessed in Study 101 (final data) and Study 102 (preliminary data) are outlined below: […]

[3] = tested on: Huh-7, ET replicon cells (HCV replicon I389luc-ubi-neo/NS3-3'/5.1); assay: Drug combination luciferase assay (4-day, MacSynergy analysis); format: cell-based, Hepatitis C virus; settings: combination with VX-950, 4 days
Description: Replicon cell lines Huh-7, ET cells derived from the Huh-7 hepatocarcinoma cell line are obtained from Dr. Ralf Bartenschlager (Bartenschlager, R. Innovation: Hepatitis C virus replicons: potential role for drug development. Nat. Rev. Drug Discov. 2002, 1, 911-916. Krieger, N.; Lohmann, V.; Bartenschlager, R. Enhancement of hepatitis C virus RNA replication by cell culture-adaptive mutations. J. Virol. 2001, 75, 4614-4624. Lohmann, V.; Korner, F.; Koch, J.-O.; Herian, U.; Theilmann, L.; Bartenschlager, R. Replication of subgenomic hepatitis C virus RNAs in a hepatoma cell line. Science. 1999, 285, 110-113.) (Reblikon GmbH, Gau-Odernheim, Germany). […]
Huh-7, ET replicon cells are seeded in white opaque 96-well cell culture microtiter plates at sub-confluent density (3×10^3 cells per well) in a volume of 100 μL media. […] Plates are read for Luciferase counts using a luminometer (Wallac MicroBeta Trilux, Perkin Elmer™, MA, USA). […]

genotype 1 chronic HCV = assay: ZENITH Phase 2a study: VX-222 in combination with telaprevir (DUAL, QUAD)
[4] = Study VX-222-002: combination treatment with VX-222 and VX-950 in healthy subjects (PK, safety); settings: Treatment Period 3: VX-222 and VX-950 simultaneously for 10 days, preliminary
[5] = 500 mg b.i.d., Day 3, HCV infected subjects

In the case of `CC1CCC(C(=O)N(c2cc(C#CC(C)(C)C)sc2C(=O)O)C2CCC(O)CC2)CC1` (stereo not drawn) [VX-222, 5-(3,3-Dimethylbut-1-ynyl)-3-[(trans-4-hydroxycyclohexyl)-(4-trans methylcyclohexanecarbonyl)amino]thiophene-2-carboxylic acid], the “AUC0-12 hr Geometric Mean” value [1, 5] is reported as 29848 ng·h/mL, the “tmax Median” value [1, 5] is reported as 2.5 h and the “most frequently reported adverse events (at least two patients per dose group)” value ([1]; blinded, pooled data for placebo or VX-222) is reported as “diarrhea, headache, nausea, asthenia and fever”. The tolerability ([1]; blinded, pooled data for placebo or VX-222, four dose groups) was “well-tolerated across all four dose groups”, the “Viral Load Reduction at Day 4, Mean” value (genotype 1 HCV; 250 mg b.i.d. for 3 days) was −3.1 and the “Viral Load Reduction at Day 4, Mean” value (genotype 1 HCV; 500 mg b.i.d. for 3 days) was −3.4. The “Viral Load Reduction at Day 4, Mean” value (genotype 1 HCV; 750 mg b.i.d. for 3 days) was −3.2, the “dose proportionality of exposures” value [2] was “increased in an approximately dose proportional manner” and the “synergy class with VX-950 (MacSynergy)” value [3] was “Moderated synergy (50 uM^2%-100 uM^2%: Moderated synergy)”. For the same compound, the “volume of synergy with VX-950 (MacSynergy)” value ([3]; listed as 1) was 90 uM^2% and 86 uM^2%, the viral breakthrough rate (genotype 1 chronic HCV; DUAL treatment arms (VX-222 with telaprevir alone), 2-sided 90% confidence interval) was over 25% and the “patients eligible (undetectable HCV RNA at Weeks 2 and 8) to stop treatment after 12 weeks” value (genotype 1 chronic HCV; higher VX-222 dose in the QUAD regimen (with telaprevir, peginterferon/ribavirin)) was 50%. The “severe or SAEs” value [4] was “no reported severe or SAEs”.
